One may read the EC50 as the concentration that produces a half-maximal response.

Numbered stars: 1 amine (or outer) side, 2 acyl side, 3 side chain; on linkers, the order of the positions; unused ones are H or OH. Bridge positions count the residues as written; N and C are the ends. Square brackets hold non-standard residues; d marks the D form. Peptide text beside a SMILES is read from it. 3Aminoazetidine3carboxyl = O=C(C1(N[*:1])CN([*:3])C1)[*:2]; dαMeOrn(Me) = CN(CCC[C@@](C)(N[*:1])C(=O)[*:2])[*:3]; dαMeDab(Me) = CN(CC[C@@](C)(N[*:1])C(=O)[*:2])[*:3]; dαMeDap(Me) = CN(C[C@@](C)(N[*:1])C(=O)[*:2])[*:3]; αMeDab(Me) = CN(CC[C@](C)(N[*:1])C(=O)[*:2])[*:3]; X3 = O=C([C@@]1(N[*:1])CCN([*:3])C1)[*:2]; X1 = O=C([C@]1(N[*:1])CCN([*:3])C1)[*:2]; X2 = O=C(OCC=CCOC(=O)[*:2])[*:1] Bounds are passed on as bounds.

The source of these data is US11198713B2, “Agents modulating beta-catenin functions and methods thereof” (FOG PHARMACEUTICALS, INC., priority 2017, dated 2021).

This assay deals with T1, full-length beta-catenin (Axin site) (Homo sapiens, UniProt P35222).
T1 construct: 15 nM full-length beta-catenin, 20 nM FITC labeled peptide in buffer
T1 sequence (P35222 1-781): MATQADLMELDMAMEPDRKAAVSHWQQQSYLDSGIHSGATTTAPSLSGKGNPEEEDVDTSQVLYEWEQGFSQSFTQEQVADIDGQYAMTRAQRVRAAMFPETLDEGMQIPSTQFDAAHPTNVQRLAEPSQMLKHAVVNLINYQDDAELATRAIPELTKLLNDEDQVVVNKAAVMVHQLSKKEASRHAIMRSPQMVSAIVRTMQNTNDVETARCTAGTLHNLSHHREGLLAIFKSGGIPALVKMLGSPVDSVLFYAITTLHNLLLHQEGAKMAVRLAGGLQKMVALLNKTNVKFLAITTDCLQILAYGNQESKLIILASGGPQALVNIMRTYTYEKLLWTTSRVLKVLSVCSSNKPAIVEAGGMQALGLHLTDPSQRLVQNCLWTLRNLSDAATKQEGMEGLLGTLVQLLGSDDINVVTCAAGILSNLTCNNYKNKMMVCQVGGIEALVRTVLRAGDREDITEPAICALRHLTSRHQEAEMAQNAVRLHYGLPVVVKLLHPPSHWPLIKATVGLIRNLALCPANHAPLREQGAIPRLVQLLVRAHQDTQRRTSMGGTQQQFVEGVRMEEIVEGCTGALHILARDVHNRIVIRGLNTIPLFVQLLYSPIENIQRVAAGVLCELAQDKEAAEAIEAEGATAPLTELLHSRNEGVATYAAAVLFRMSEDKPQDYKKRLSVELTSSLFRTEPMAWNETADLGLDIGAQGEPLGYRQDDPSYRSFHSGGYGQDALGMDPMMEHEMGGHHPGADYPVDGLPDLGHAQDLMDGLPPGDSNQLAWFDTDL
The experiment in a line: Competition fluorescence polarization assay (Axin site probe). It counts as binding. To be noted: competition fluorescence polarization, Table 2; read-out: in vitro FP EC50. The essentials: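 Competition FP: 15 nM full-length β-catenin pre-incubated 5 min with 20 nM FITC-labelled stapled Axin-site peptide, then titrated peptide added (3-fold series from 5 μM) for 15 min in the dark. Buffer 50 mM Tris pH 8.0, 250 mM NaCl, 2% glycerol, 0.5 mM EDTA; duplicate reads.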

Regarding `CC[C@H](C)[C@@H]1NC(=O)[C@H](Cc2c[nH]cn2)NC(=O)[C@H](C)NC(=O)[C@H](CC(=O)O)NC(=O)[C@H](CC(C)C)NC(=O)[C@H]([C@@H](C)CC)NC(=O)[C@](C)(NC(=O)[C@H](C)NC(C)=O)CCCN(C)C(=O)OCC=CCOC(=O)N(C)CC[C@@](C)(C(=O)N[C@@H](CCCNC(=N)N)C(=O)N[C@H](C(=O)N[C@@H](Cc2c[nH]c3ccccc23)C(N)=O)C(C)C)NC1=O` [FP0587c, Ac-A-MI-I-L-D-A-H-I-MF-R-V-W-NH2] (Ac-A[dαMeOrn(Me)]ILDAHI[αMeDab(Me)]RVW-NH2; linker 2-9 via X2), the EC50 is less than 0.1 µM.

On to `CC[C@H](C)[C@@H]1NC(=O)[C@H](Cc2c[nH]cn2)NC(=O)[C@H](C)NC(=O)[C@H](CC(=O)O)NC(=O)[C@H](CC(C)C)NC(=O)[C@H]([C@@H](C)CC)NC(=O)[C@](C)(NC(=O)[C@H](C)NC(C)=O)CCN(C)C(=O)OCC=CCOC(=O)N(C)C[C@](C)(C(=O)N[C@@H](CCCNC(=N)N)C(=O)N[C@H](C(=O)N[C@@H](Cc2c[nH]c3ccccc23)C(N)=O)C(C)C)NC1=O` [FP0596c, Ac-A-MG-I-L-D-A-H-I-ME-R-V-W-NH2] (Ac-A[dαMeDab(Me)]ILDAHI[dαMeDap(Me)]RVW-NH2; linker 2-9 via X2), for which the EC50 lay within 0.5 to 5 µM.

Take `CC[C@H](C)[C@@H]1NC(=O)[C@H](Cc2c[nH]cn2)NC(=O)[C@H](C)NC(=O)[C@H](CC(=O)O)NC(=O)[C@H](CC(C)C)NC(=O)[C@H]([C@@H](C)CC)NC(=O)[C@](C)(NC(=O)[C@H](C)NC(C)=O)CN(C)C(=O)OCC=CCOC(=O)N(C)CC[C@@](C)(C(=O)N[C@@H](CCCNC(=N)N)C(=O)N[C@H](C(=O)N[C@@H](Cc2c[nH]c3ccccc23)C(N)=O)C(C)C)NC1=O` [FP0601c, Ac-A-ME-I-L-D-A-H-I-MF-R-V-W-NH2] (Ac-A[dαMeDap(Me)]ILDAHI[αMeDab(Me)]RVW-NH2; linker 2-9 via X2): the concentration giving a half-maximal response (EC50) is less than 0.1 µM.

For `CC[C@H](C)[C@@H]1NC(=O)[C@H](Cc2c[nH]cn2)NC(=O)[C@H](C)NC(=O)[C@H](CC(=O)O)NC(=O)[C@H](CC(C)C)NC(=O)[C@H]([C@@H](C)CC)NC(=O)[C@](C)(NC(=O)[C@H](C)NC(C)=O)CN(C)C(=O)OCC=CCOC(=O)N2CC[C@@](C(=O)N[C@@H](CCCNC(=N)N)C(=O)N[C@H](C(=O)N[C@@H](Cc3c[nH]c4ccccc34)C(N)=O)C(C)C)(C2)NC1=O` [FP0604c, Ac-A-ME-I-L-D-A-H-I-MB-R-V-W-NH2] (Ac-A[dαMeDap(Me)]ILDAHI[X1]RVW-NH2; linker 2-9 via X2), the EC50 was less than 0.1 µM.

Turning to `CC[C@H](C)[C@@H]1NC(=O)[C@H](Cc2c[nH]cn2)NC(=O)[C@H](C)NC(=O)[C@H](CC(=O)O)NC(=O)[C@H](CC(C)C)NC(=O)[C@H]([C@@H](C)CC)NC(=O)[C@](C)(NC(=O)[C@H](C)NC(C)=O)CN(C)C(=O)OCC=CCOC(=O)N2CC[C@](C(=O)N[C@@H](CCCNC(=N)N)C(=O)N[C@H](C(=O)N[C@@H](Cc3c[nH]c4ccccc34)C(N)=O)C(C)C)(C2)NC1=O` [FP0605c, Ac-A-ME-I-L-D-A-H-I-MC-R-V-W-NH2] (Ac-A[dαMeDap(Me)]ILDAHI[X3]RVW-NH2; linker 2-9 via X2), the EC50 is less than 0.1 µM.

For `CC[C@H](C)[C@@H]1NC(=O)[C@H](Cc2c[nH]cn2)NC(=O)[C@H](C)NC(=O)[C@H](CC(=O)O)NC(=O)[C@H](CC(C)C)NC(=O)[C@H]([C@@H](C)CC)NC(=O)C2(NC(=O)[C@H](C)NC(C)=O)CN(C2)C(=O)OCC=CCOC(=O)N(C)CC[C@@](C)(C(=O)N[C@@H](CCCNC(=N)N)C(=O)N[C@H](C(=O)N[C@@H](Cc2c[nH]c3ccccc23)C(N)=O)C(C)C)NC1=O` [FP0611c, Ac-A-MA-I-L-D-A-H-I-MF-R-V-W-NH2] (Ac-A[3Aminoazetidine3carboxyl]ILDAHI[αMeDab(Me)]RVW-NH2; linker 2-9 via X2), the EC50 is less than 0.1 µM.

In the case of `CC[C@H](C)[C@@H]1NC(=O)[C@H](Cc2c[nH]cn2)NC(=O)[C@H](C)NC(=O)[C@H](CC(=O)O)NC(=O)[C@H](CC(C)C)NC(=O)[C@H]([C@@H](C)CC)NC(=O)C2(NC(=O)[C@H](C)NC(C)=O)CN(C2)C(=O)OCC=CCOC(=O)N(C)CCC[C@](C)(C(=O)N[C@@H](CCCNC(=N)N)C(=O)N[C@H](C(=O)N[C@@H](Cc2c[nH]c3ccccc23)C(N)=O)C(C)C)NC1=O` [FP0625c, Ac-A-MA-I-L-D-A-H-I-MI-R-V-W-NH2] (Ac-A[3Aminoazetidine3carboxyl]ILDAHI[dαMeOrn(Me)]RVW-NH2; linker 2-9 via X2), the EC50 was in the range of 0.1 to 0.5 µM.

Take `CC[C@H](C)[C@@H]1NC(=O)[C@H](Cc2c[nH]cn2)NC(=O)[C@H](C)NC(=O)[C@H](CCS(C)(=O)=O)NC(=O)[C@H](CC(C)C)NC(=O)[C@H]([C@@H](C)CC)NC(=O)[C@](C)(NC(=O)[C@H](C)NC(C)=O)CCCCCCC=CCOC(=O)N2CC[C@@](C(=O)N[C@@H](CCCNC(=N)N)C(=O)N[C@H](C(=O)N[C@@H](Cc3c[nH]c4ccccc34)C(N)=O)C(C)C)(C2)NC1=O` [FP0629c, Ac-A-R8-I-L-M2O-A-H-I-MB-R-V-W-NH2]: the concentration for a half-maximal effect (EC50) is 0.5 to 5 µM.

Regarding `CC[C@H](C)[C@@H]1NC(=O)[C@H](Cc2c[nH]cn2)NC(=O)[C@H](C)NC(=O)[C@H](CC(=O)O)NC(=O)[C@H](CC(C)C)NC(=O)[C@H]([C@@H](C)CC)NC(=O)[C@](C)(NC(=O)[C@H](C)NC(C)=O)CCCCCCC=CCOC(=O)N2CC[C@@](C(=O)N[C@@H](CCCNC(=N)N)C(=O)N[C@H](C(=O)N[C@H](Cc3c[nH]c4ccccc34)C(N)=O)C(C)C)(C2)NC1=O` [FP0630c, Ac-A-R8-I-L-D-A-H-I-MB-R-V-dW-NH2], the EC50 lay in the range of 0.1 to 0.5 µM.

`CC[C@H](C)[C@@H]1NC(=O)[C@H](Cc2c[nH]cn2)NC(=O)[C@H](C)NC(=O)[C@H](CC(=O)O)NC(=O)[C@H](CC(C)C)NC(=O)[C@H]([C@@H](C)CC)NC(=O)[C@](C)(NC(=O)[C@H](C)NC(C)=O)CCCCCCC=CCOC(=O)N2CC[C@@](C(=O)N[C@@H](CCCNC(=N)N)C(=O)N[C@H](C(=O)N[C@@](C)(Cc3c[nH]c4ccccc34)C(N)=O)C(C)C)(C2)NC1=O` [FP0631c, Ac-A-R8-I-L-D-A-H-I-MB-R-V-aMeW-NH2]: the EC50 is 0.5 to 5 µM.

As to `CC[C@H](C)[C@@H]1NC(=O)[C@H](Cc2c[nH]cn2)NC(=O)[C@H](C)NC(=O)[C@H](CC(=O)O)NC(=O)[C@H](CC(C)C)NC(=O)[C@H]([C@@H](C)CC)NC(=O)[C@](C)(NC(=O)[C@H](C)NC(C)=O)CCCCCCC=CCOC(=O)N2CC[C@@](C(=O)N[C@@H](CCCNC(=N)N)C(=O)N[C@@](C)(CC(C)C)C(=O)N[C@@H](Cc3c[nH]c4ccccc34)C(N)=O)(C2)NC1=O` [FP0633c, Ac-A-R8-I-L-D-A-H-I-MB-R-aMeL-W-NH2], the EC50 is 0.5 to 5 µM.

Regarding `CC[C@H](C)[C@@H]1NC(=O)[C@H](Cc2c[nH]cn2)NC(=O)[C@H](C)NC(=O)[C@H](CC(=O)O)NC(=O)[C@H](CC(C)C)NC(=O)[C@H]([C@@H](C)CC)NC(=O)[C@](C)(NC(=O)[C@H](C)NC(C)=O)CCCCCCC=CCOC(=O)N2CC[C@@](C(=O)N[C@@H](CCCCNC(=N)N)C(=O)N[C@H](C(=O)N[C@@H](Cc3c[nH]c4ccccc34)C(N)=O)C(C)C)(C2)NC1=O` [FP0634c, Ac-A-R8-I-L-D-A-H-I-MB-hArg-V-W-NH2], the EC50 is less than 0.1 µM.

`CC[C@H](C)[C@@H]1NC(=O)[C@H](Cc2c[nH]cn2)NC(=O)[C@H](C)NC(=O)[C@H](CC(=O)O)NC(=O)[C@H](CC(C)C)NC(=O)[C@H]([C@@H](C)CC)NC(=O)[C@](C)(NC(=O)[C@H](C)NC(C)=O)CCCCCCC=CCOC(=O)N2CC[C@@](C(=O)N[C@@H](CCCCN)C(=O)N[C@H](C(=O)N[C@@H](Cc3c[nH]c4ccccc34)C(N)=O)C(C)C)(C2)NC1=O` [FP0635c, Ac-A-R8-I-L-D-A-H-I-MB-K-V-W-NH2]: the EC50 lay within 0.1 to 0.5 µM.

In the case of `CC[C@H](C)[C@@H]1NC(=O)[C@H](Cc2c[nH]cn2)NC(=O)[C@H](C)NC(=O)[C@H](CC(=O)O)NC(=O)[C@H](CC(C)C)NC(=O)[C@H]([C@@H](C)CC)NC(=O)[C@](C)(NC(=O)[C@H](C)NC(C)=O)CCCCCCC=CCOC(=O)N2CC[C@@](C(=O)N[C@@H](CCCCNC)C(=O)N[C@H](C(=O)N[C@@H](Cc3c[nH]c4ccccc34)C(N)=O)C(C)C)(C2)NC1=O` [FP0636c, Ac-A-R8-I-L-D-A-H-I-MB-lmeK-V-W-NH2], the EC50 is 0.1 to 0.5 µM.

Regarding `CC[C@H](C)[C@@H]1NC(=O)[C@H](Cc2c[nH]cn2)NC(=O)[C@H](C)NC(=O)[C@H](CC(=O)O)NC(=O)[C@H](CC(C)C)NC(=O)[C@H]([C@@H](C)CC)NC(=O)[C@](C)(NC(=O)[C@H](C)NC(C)=O)CCCCCCC=CCOC(=O)N2CC[C@@](C(=O)N[C@@H](CCCNC(=N)N(C)C)C(=O)N[C@H](C(=O)N[C@@H](Cc3c[nH]c4ccccc34)C(N)=O)C(C)C)(C2)NC1=O` [FP0639c, Ac-A-R8-I-L-D-A-H-I-MB-ADMA-V-W-NH2], the EC50 was less than 0.1 µM.
